# Measured values reported in PubChem BioAssay (NCI).
#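 Growth conditions: 96-well plates. Treatment: test compound, 48 hours, 5 concentrations. Analysis: linear interpolation between bracketing concentrations; unreached endpoints set to highest concentration. TGI: total growth inhibition.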
# How the values were obtained:
# Assay in all cases: growth of human tumour cells (NCI), 48 h
# [1] = test system: 786-0 renal
# [2] = test system: A498 renal
# [3] = test system: A549 NSCLC
# [4] = test system: ACHN renal
# [5] = test system: BT-549 breast
# [6] = test system: CAKI-1 renal
# [7] = test system: CCRF-CEM leukemia
# [8] = test system: COLO 205 colon
# [9] = test system: DU-145 prostate
# [10] = test system: EKVX NSCLC
# [11] = test system: HCC-2998 colon
# [12] = test system: HCT-116 colon
# [13] = test system: HCT-15 colon
# [14] = test system: HL-60(TB) leukemia
# [15] = test system: HOP-62 NSCLC
# [16] = test system: HOP-92 NSCLC
# [17] = test system: HS 578T breast
# [18] = test system: HT29 colon
# [19] = test system: IGROV1 ovarian
# [20] = test system: KM12 colon
# [21] = test system: LOX IMVI melanoma
# [22] = test system: M14 melanoma
# [23] = test system: MALME-3M melanoma
# [24] = test system: MCF7 breast
# [25] = test system: MDA-MB-231 breast
# [26] = test system: MDA-MB-435
# [27] = test system: MDA-N
# [28] = test system: MOLT-4 leukemia
# [29] = test system: NCI-H226 lung
# [30] = test system: NCI-H23 lung
# [31] = test system: NCI-H460 lung
# [32] = test system: NCI-H522 lung
# [33] = test system: NCI/ADR-RES ovarian
# [34] = test system: OVCAR-3 ovarian
# [35] = test system: OVCAR-4 ovarian
# [36] = test system: OVCAR-5 ovarian
# [37] = test system: OVCAR-8 ovarian
# [38] = test system: PC-3 prostate
# [39] = test system: RPMI-8226 leukemia
# [40] = test system: RXF 393 renal
# [41] = test system: SF-268 CNS
# [42] = test system: SF-295 CNS
# [43] = test system: SF-539 CNS
# [44] = test system: SK-MEL-2 melanoma
# [45] = test system: SK-MEL-28 melanoma
# [46] = test system: SK-MEL-5 melanoma
# [47] = test system: SK-OV-3 ovarian
# [48] = test system: SN12C renal
# [49] = test system: SNB-19 CNS
# [50] = test system: SNB-75 CNS
# [51] = test system: SW-620 colon
# [52] = test system: T-47D breast
# [53] = test system: TK-10 renal
# [54] = test system: U251 CNS
# [55] = test system: UACC-257 melanoma
# [56] = test system: UACC-62 melanoma
# [57] = test system: UO-31 renal
# [58] = test system: K-562 leukemia
# [59] = test system: SR leukemia
structure (smiles),measurement,setting,value
O=c1oc2ccccc2c(O)c1C(c1ccc(OCc2ccccc2)cc1)c1c(O)c2ccccc2oc1=O,TGI,[1],> 100 µM
same,TGI,[2],> 100 µM
same,TGI,[3],> 100 µM
same,TGI,[4],47.9 µM
same,TGI,[5],61.8 µM
same,TGI,[6],81.2 µM
same,TGI,[7],> 100 µM
same,TGI,[8],> 100 µM
same,TGI,[9],> 100 µM
same,TGI,[10],> 100 µM
same,TGI,[11],96.9 µM
same,TGI,[12],> 100 µM
same,TGI,[13],> 100 µM
same,TGI,[14],65.9 µM
same,TGI,[15],> 100 µM
same,TGI,[16],91.6 µM
same,TGI,[17],> 100 µM
same,TGI,[18],> 100 µM
same,TGI,[19],> 100 µM
same,TGI,[20],> 100 µM
same,TGI,[21],> 100 µM
same,TGI,[22],> 100 µM
same,TGI,[23],> 100 µM
same,TGI,[24],> 100 µM
same,TGI,[25],69.2 µM
same,TGI,[26],> 100 µM
same,TGI,[27],59.4 µM
same,TGI,[28],> 100 µM
same,TGI,[29],> 100 µM
same,TGI,[30],> 100 µM
same,TGI,[31],> 100 µM
same,TGI,[32],> 100 µM
same,TGI,[33],> 100 µM
same,TGI,[34],> 100 µM
same,TGI,[35],> 100 µM
same,TGI,[36],> 100 µM
same,TGI,[37],> 100 µM
same,TGI,[38],> 100 µM
same,TGI,[39],> 100 µM
same,TGI,[40],> 100 µM
same,TGI,[41],> 100 µM
same,TGI,[42],> 100 µM
same,TGI,[43],> 100 µM
same,TGI,[44],> 100 µM
same,TGI,[45],> 100 µM
same,TGI,[46],60.1 µM
same,TGI,[47],> 100 µM
same,TGI,[48],> 100 µM
same,TGI,[49],> 100 µM
same,TGI,[50],65.6 µM
same,TGI,[51],> 100 µM
same,TGI,[52],> 100 µM
same,TGI,[53],> 100 µM
same,TGI,[54],> 100 µM
same,TGI,[55],> 100 µM
same,TGI,[56],> 100 µM
same,TGI,[57],52.5 µM
CCN(CC)/N=C\c1c2ccccc2cc2ccccc12,TGI,[1],> 100 µM
same,TGI,[2],> 100 µM
same,TGI,[3],> 100 µM
same,TGI,[4],> 100 µM
same,TGI,[5],> 100 µM
same,TGI,[6],> 100 µM
same,TGI,[7],94.4 µM
same,TGI,[8],53.5 µM
same,TGI,[9],> 100 µM
same,TGI,[10],> 100 µM
same,TGI,[12],> 100 µM
same,TGI,[13],> 100 µM
same,TGI,[14],> 100 µM
same,TGI,[16],61.1 µM
same,TGI,[17],> 100 µM
same,TGI,[18],88.3 µM
same,TGI,[19],> 100 µM
same,TGI,[58],> 100 µM
same,TGI,[20],> 100 µM
same,TGI,[22],51.6 µM
same,TGI,[23],> 100 µM
same,TGI,[25],> 100 µM
same,TGI,[26],> 100 µM
same,TGI,[27],> 100 µM
same,TGI,[28],> 100 µM
same,TGI,[30],> 100 µM
same,TGI,[31],> 100 µM
same,TGI,[32],63.7 µM
same,TGI,[33],> 100 µM
same,TGI,[35],> 100 µM
same,TGI,[36],> 100 µM
same,TGI,[37],> 100 µM
same,TGI,[38],> 100 µM
same,TGI,[39],77.1 µM
same,TGI,[40],57.3 µM
same,TGI,[41],> 100 µM
same,TGI,[42],> 100 µM
same,TGI,[43],> 100 µM
same,TGI,[44],61.9 µM
same,TGI,[45],> 100 µM
same,TGI,[46],40.2 µM
same,TGI,[47],> 100 µM
same,TGI,[48],> 100 µM
same,TGI,[49],> 100 µM
same,TGI,[50],68.7 µM
same,TGI,[59],> 100 µM
same,TGI,[51],> 100 µM
same,TGI,[52],> 100 µM
same,TGI,[53],> 100 µM
same,TGI,[54],> 100 µM
same,TGI,[55],72.4 µM
same,TGI,[56],> 100 µM
same,TGI,[57],> 100 µM
CCOC(=O)c1sc2nc(SC)nc3c2c1NCN3C,TGI,[1],47.3 µM
same,TGI,[2],57.6 µM
same,TGI,[3],> 100 µM
same,TGI,[4],59.3 µM
same,TGI,[5],> 100 µM
same,TGI,[6],> 100 µM
same,TGI,[7],> 100 µM
same,TGI,[8],> 100 µM
same,TGI,[9],> 100 µM
same,TGI,[11],> 100 µM
same,TGI,[12],> 100 µM
same,TGI,[13],> 100 µM
same,TGI,[15],47.2 µM
same,TGI,[16],27.9 µM
same,TGI,[17],59.4 µM
same,TGI,[18],> 100 µM
same,TGI,[19],39.2 µM
same,TGI,[20],> 100 µM
same,TGI,[21],> 100 µM
same,TGI,[22],> 100 µM
same,TGI,[23],57.6 µM
same,TGI,[25],92.5 µM
same,TGI,[26],> 100 µM
same,TGI,[27],> 100 µM
same,TGI,[29],> 100 µM
same,TGI,[30],59.1 µM
same,TGI,[31],> 100 µM
same,TGI,[33],> 100 µM
same,TGI,[34],> 100 µM
same,TGI,[35],> 100 µM
same,TGI,[36],> 100 µM
same,TGI,[37],25.9 µM
same,TGI,[38],> 100 µM
same,TGI,[39],> 100 µM
same,TGI,[40],32.8 µM
same,TGI,[41],61.5 µM
same,TGI,[42],> 100 µM
same,TGI,[44],> 100 µM
same,TGI,[45],> 100 µM
same,TGI,[46],> 100 µM
same,TGI,[47],38.3 µM
same,TGI,[48],> 100 µM
same,TGI,[49],75.3 µM
same,TGI,[50],22.9 µM
same,TGI,[52],25.9 µM
same,TGI,[53],> 100 µM
same,TGI,[54],46.9 µM
same,TGI,[55],> 100 µM
same,TGI,[56],> 100 µM
same,TGI,[57],37.6 µM
CCOP(=O)(OCC)C(Nc1ccc(Cl)cc1)c1ccc(F)cc1 (stereo not drawn),TGI,[1],43.4 µM
same,TGI,[2],58.7 µM
same,TGI,[3],> 100 µM
same,TGI,[4],97.2 µM
same,TGI,[6],83.6 µM
same,TGI,[7],93.1 µM
same,TGI,[8],87.1 µM
same,TGI,[9],91.4 µM
same,TGI,[10],> 100 µM
same,TGI,[11],59.1 µM
same,TGI,[12],44.5 µM
same,TGI,[13],> 100 µM
same,TGI,[14],54.1 µM
same,TGI,[15],48.2 µM
same,TGI,[16],59.1 µM
same,TGI,[17],54.4 µM
same,TGI,[18],62.9 µM
same,TGI,[58],68.5 µM
same,TGI,[20],> 100 µM
same,TGI,[21],29.1 µM
same,TGI,[22],37.2 µM
same,TGI,[23],42.3 µM
same,TGI,[25],74.6 µM
same,TGI,[26],39.7 µM
same,TGI,[27],43.1 µM
same,TGI,[28],61.7 µM
same,TGI,[29],88 µM
same,TGI,[30],53.9 µM
same,TGI,[31],48.2 µM
same,TGI,[32],49.7 µM
same,TGI,[33],87.3 µM
same,TGI,[34],> 100 µM
same,TGI,[35],> 100 µM
same,TGI,[37],> 100 µM
same,TGI,[39],67.6 µM
same,TGI,[40],67.3 µM
same,TGI,[41],61.2 µM
same,TGI,[42],44.8 µM
same,TGI,[43],49 µM
same,TGI,[44],35.8 µM
same,TGI,[45],41.7 µM
same,TGI,[46],32.8 µM
same,TGI,[47],> 100 µM
same,TGI,[48],53.2 µM
same,TGI,[49],> 100 µM
same,TGI,[50],84.8 µM
same,TGI,[59],> 100 µM
same,TGI,[52],40.8 µM
same,TGI,[53],> 100 µM
same,TGI,[54],41.3 µM
same,TGI,[55],44 µM
same,TGI,[56],29.3 µM
same,TGI,[57],59.9 µM
